Data set [1] can be described thus: Pharmacokinetics in plasma and lung in mouse. In kind it is in vivo. Particulars: oral aspiration, lung AUC (μg hr/g) to plasma AUC (μg hr/mL). The method, then: Plasma and lung levels of test compounds and ratios thereof were determined in the following manner. BALB/c mice from Charles River Laboratories were used in the assay. Test compounds were individually formulated in 20% propylene glycol in pH 4 citrate buffer at a concentration of 0.2 mg/mL and 50 uL of the dosing solution was introduced into the trachea of a mouse by oral aspiration. At various time points (typically 0.167, 2, 6, 24 hr) post dosing, blood samples were removed via cardiac puncture and intact lungs were excised from the mice. Blood samples were centrifuged (Eppendorf centrifuge, 5804R) for 4 minutes at approximately 12,000 rpm at 4° C. to collect plasma. Lungs were padded dry, weighed, and homogenized at a dilution of 1:3 in sterile water. Plasma and lung levels of test compound were determined by LC-MS analysis against analytical standards constructed into a standard curve in the test matrix. A lung to plasma ratio was determined as the ratio of the lung AUC in μg hr/g to the plasma AUC in μg hr/mL, where AUC is conventionally defined as the area under the curve of test compound concentration vs. time.

The next data set addresses JAK1 (Homo sapiens (Human), UniProt P23458). The experiment in a line: LanthaScreen JAK1 biochemical assay. The note with it: versus Examples 1, 7, 13, 6. For orientation: Time-resolved FRET reads energy transfer from a long-lived donor to a nearby acceptor.
The test system of another data set is IL-13 induced pSTAT6. The experiment in a line: Murine model of IL-13 induced pSTAT6 induction in lung tissue. In kind it is in vivo. Particulars: mouse lung; for lung concentration smaller than that of the corresponding compound of the invention by a factor: pharmacodynamic assay, versus Examples 1, 7, 13, 6. The method, then: Il-13 is an important cytokine underlying the pathophysiology of asthma (Kudlacz et al. Eur. J. Pharmacol, 2008, 582, 154-161). IL-13 binds to cell surface receptors activating members of the Janus family of kinases (JAK) which then phosphorylate STAT6 and subsequently activates further transcription pathways. In the described model, a dose of IL-13 was delivered locally into the lungs of mice to induce the phosphorylation of STAT6 (pSTAT6) which is then measured as the endpoint.
Adult balb/c mice from Harlan were used in the assay. On the day of study, animals were lightly anesthetized with isoflurane and administered either vehicle or test compound (0.5 mg/mL, 50 μL total volume over several breaths) via oral aspiration. Animals were placed in lateral recumbency post dose and monitored for full recovery from anesthesia before being returned to their home cage. Four hours later, animals were once again briefly anesthetized and challenged with either vehicle or IL-13 (0.03 μg total dose delivered, 50 μL total volume) via oral aspiration before being monitored for recovery from anesthesia and returned to their home cage. One hour after vehicle or IL-13 administration, lungs were collected for both pSTAT6 detection using an anti-pSTAT6 ELISA (rabbit mAb capture/coating antibody; mouse mAb detection/report antibody: anti-pSTAT6-pY641; secondary antibody: anti-mouse IgG-HRP) and analyzed for total drug concentration as described above in Assay 4.
Selected compounds of the invention were tested in the assay. Activity in the model is evidenced by a decrease in the level of pSTAT6 present in the lungs of treated animals at 5 hours compared to the vehicle treated, IL-13 challenged control animals. The difference between the control animals which were vehicle-treated, IL-13 challenged and the control animals which were vehicle-treated, vehicle challenged dictated the 0% and 100% inhibitory effect, respectively, in any given experiment.

Data set [2] has as its system IL-13 induced STAT6 phosphorylation in BEAS-2B human lung epithelial cells. The experiment in a line: AlphaScreen JAK1 cellular potency assay in BEAS-2B cells. Format: cell-based. (Alpha assays give light when donor and acceptor beads are brought close together.)
Data set [3] in a line: Dynamic moisture sorption assessment. In kind it is physicochemical. The method, then: Dynamic moisture sorption (DMS) measurement was performed using a VTI atmospheric microbalance, SGA-100 system (VTI Corp., Hialeah, Fla. 33016). A weighed sample was used and the humidity was lowest possible value (close to 0% RH) at the start of the analysis. The DMS analysis consisted of an initial drying step (˜0% RH) for 120 minutes, followed by two cycles of sorption and desorption with a scan rate of 5% RH/step over the humidity range of 5% RH to 90% RH. The DMS run was performed isothermally at 25° C.

Structures are written as SMILES.

Sequence of JAK1 (P23458 whole entry): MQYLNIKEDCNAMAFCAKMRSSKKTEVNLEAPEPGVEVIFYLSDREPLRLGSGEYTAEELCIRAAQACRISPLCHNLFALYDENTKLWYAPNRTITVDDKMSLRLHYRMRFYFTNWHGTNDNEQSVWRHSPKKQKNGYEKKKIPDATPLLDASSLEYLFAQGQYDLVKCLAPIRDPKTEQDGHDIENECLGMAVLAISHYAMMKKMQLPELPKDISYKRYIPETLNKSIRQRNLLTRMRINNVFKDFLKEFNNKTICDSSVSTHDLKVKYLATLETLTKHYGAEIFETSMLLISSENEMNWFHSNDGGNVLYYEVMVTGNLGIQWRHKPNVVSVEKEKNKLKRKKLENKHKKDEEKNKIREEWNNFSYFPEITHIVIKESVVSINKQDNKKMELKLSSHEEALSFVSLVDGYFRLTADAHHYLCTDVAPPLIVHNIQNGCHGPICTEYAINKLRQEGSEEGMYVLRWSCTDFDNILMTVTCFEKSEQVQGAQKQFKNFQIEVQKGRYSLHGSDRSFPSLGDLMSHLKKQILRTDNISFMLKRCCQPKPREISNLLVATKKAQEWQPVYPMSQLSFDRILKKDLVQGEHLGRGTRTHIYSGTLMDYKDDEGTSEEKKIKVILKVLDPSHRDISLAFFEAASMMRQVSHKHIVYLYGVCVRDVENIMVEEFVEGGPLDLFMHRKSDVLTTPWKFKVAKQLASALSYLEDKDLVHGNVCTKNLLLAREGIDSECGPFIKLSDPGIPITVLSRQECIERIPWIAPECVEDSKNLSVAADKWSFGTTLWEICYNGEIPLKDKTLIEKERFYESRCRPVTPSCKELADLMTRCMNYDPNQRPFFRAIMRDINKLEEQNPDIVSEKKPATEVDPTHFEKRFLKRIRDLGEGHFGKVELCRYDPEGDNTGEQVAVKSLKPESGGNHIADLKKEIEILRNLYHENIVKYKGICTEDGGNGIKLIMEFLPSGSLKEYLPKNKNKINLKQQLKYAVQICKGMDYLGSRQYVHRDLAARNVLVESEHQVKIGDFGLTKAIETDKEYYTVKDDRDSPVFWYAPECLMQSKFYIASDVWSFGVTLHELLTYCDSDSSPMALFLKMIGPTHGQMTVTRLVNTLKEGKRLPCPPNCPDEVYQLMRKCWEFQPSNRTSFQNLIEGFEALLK

As to `CCc1cc(O)c(F)cc1-c1ccc2c(-c3nc4c([nH]3)CCN(CC3CNC3)C4)n[nH]c2c1` [Example 14-7], the “Lung to Plasma ratio Assay 4” value in data set [1] is reported as “A (A denotes a ratio >100)”. As for `CCc1cc(O)c(F)cc1-c1ccc2c(-c3nc4c([nH]3)CCN(C3CC(C)C3)C4)n[nH]c2c1` (centres unmarked) [Example C-1, 5-Ethyl-2-fluoro-4-(3-(5-(3-methylcyclobutyl)-4,5,6,7-tetrahydro-1H-imidazo[4,5-c]pyridin-2-yl)-1H-indazol-6-yl)phenol], on JAK1, the “fold less potent than the corresponding compound of the invention in the enzyme assay” value is 2 fold. Further, the “lung concentration smaller than that of the corresponding compound of the invention by a factor” value (“lung concentration smaller than that” for short) with IL-13 induced pSTAT6 came to 36. `CCc1cc(O)c(F)cc1-c1ccc2c(-c3nc4c([nH]3)CCN(CCN(C)CC(C)C)C4)n[nH]c2c1` [Example 3-33]: in data set [1], the “Lung to Plasma ratio Assay 4” value is reported as “A (A denotes a ratio >100)”. As for `CCc1cc(O)c(F)cc1-c1ccc2c(-c3nc4c([nH]3)CCN(C[C@@H]3CCCN3C)C4)n[nH]c2c1` [Example 11, (S)-5-ethyl-2-fluoro-4-(3-(5-((1-methylpyrrolidin-2-yl)methyl)-4,5,6,7-tetrahydro-1H-imidazo[4,5-c]pyridin-2-yl)-1H-indazol-6-yl)phenol], in data set [1], the “Lung to Plasma ratio Assay 4” value is recorded as “A (A denotes a ratio >100)”.

For `CCc1cc(O)c(F)cc1-c1ccc2c(-c3nc4c([nH]3)CCN(CCNC3CC(OC)C3)C4)n[nH]c2c1` (centres unmarked) [Example 3-30], the “BEAS-2B pIC50” value in data set [2] is “A (A represents a pIC50 value ≥8 (IC50≤10 nM))”.

With `CCc1cc(O)c(F)cc1-c1ccc2c(-c3nc4c([nH]3)CCN(C[C@H]3COCCN3)C4)n[nH]c2c1` [Example 13, (S)-5-Ethyl-2-fluoro-4-(3-(5-(morpholin-3-ylmethyl)-4,5,6,7-tetrahydro-1H-imidazo[4,5-c]pyridin-2-yl)-1H-indazol-6-yl)phenol], the “Lung to Plasma ratio Assay 4” value in data set [1] was “A (A denotes a ratio >100)”. For `CCc1cc(O)c(F)cc1-c1ccc2c(-c3nc4c([nH]3)CCN(C3CCC(C)CC3)C4)n[nH]c2c1` (centres unmarked) [Example C-4], the “fold less potent than the corresponding compound of the invention in the enzyme assay” value at JAK1 is listed as 2.5 fold. In the data set with IL-13 induced pSTAT6, the “lung concentration smaller than that” value came out at 23.

Regarding `CCc1cc(O)c(F)cc1-c1ccc2c(-c3nc4c([nH]3)CCN(CCN3CCC[C@@H]3C)C4)n[nH]c2c1` [Example 15, (S)-5-ethyl-2-fluoro-4-(3-(5-(2-(2-methylpyrrolidin-1-yl)ethyl)-4,5,6,7-tetrahydro-1H-imidazo[4,5-c]pyridin-2-yl)-1H-indazol-6-yl)phenol], the “Lung to Plasma ratio Assay 4” value in data set [1] is reported as “A (A denotes a ratio >100)”. `CCc1cc(O)c(F)cc1-c1ccc2c(-c3nc4c([nH]3)CCN(CCNC3(C#N)CC3)C4)n[nH]c2c1` [Example 3-1]: in the data set on IL-13 induced pSTAT6, the “pSTAT6 inhibition in the pharmacodynamic assay” value was “noted as exceptions”. For `CCc1cc(O)c(F)cc1-c1ccc2c(-c3nc4c([nH]3)CCN(C[C@@H]3COCCN3)C4)n[nH]c2c1` [Example 14, (R)-5-Ethyl-2-fluoro-4-(3-(5-(morpholin-3-ylmethyl)-4,5,6,7-tetrahydro-1H-imidazo[4,5-c]pyridin-2-yl)-1H-indazol-6-yl)phenol], in data set [1], the “Lung to Plasma ratio Assay 4” value is given as “A (A denotes a ratio >100)”. On to `CCc1cc(O)c(F)cc1-c1ccc2c(-c3nc4c([nH]3)CCN(CCC(C)C)C4)n[nH]c2c1` [Example C-2], for which the “fold less potent than the corresponding compound of the invention in the enzyme assay” value at JAK1 was 3 fold. The “lung concentration smaller than that” value with IL-13 induced pSTAT6 was determined as 52. Consider `CCc1cc(O)c(F)cc1-c1ccc2c(-c3nc4c([nH]3)CCN(CC3CCCOC3)C4)n[nH]c2c1` (centres unmarked) [Example C-3], for which the “fold less potent than the corresponding compound of the invention in the enzyme assay” value on JAK1 amounted to 6 fold. Moreover, the “lung concentration smaller than that” value in the data set with IL-13 induced pSTAT6 was 13. Consider `CCc1cc(O)c(F)cc1-c1ccc2c(-c3nc4c([nH]3)CCN(CCNC3CC(OC)C3)C4)n[nH]c2c1` (centres unmarked) [Example 8, 5-Ethyl-2-fluoro-4-(3-(5-(2-((3-methoxycyclobutyl)amino)ethyl)-4,5,6,7-tetrahydro-1H-imidazo[4,5-c]pyridin-2-yl)-1H-indazol-6-yl)phenol], for which the “Lung to Plasma ratio Assay 4” value in data set [1] is “A (A denotes a ratio >100)”. `CCc1cc(O)c(F)cc1-c1ccc2c(-c3nc4c([nH]3)CCN(C3CN(C5CCS(=O)(=O)C5)C3)C4)n[nH]c2c1` (centres unmarked) [Example 1-15]: the “pSTAT6 inhibition in the pharmacodynamic assay” value in the data set with IL-13 induced pSTAT6 was “noted as exceptions”. As for `CCc1cc(O)c(F)cc1-c1ccc2c(-c3nc4c([nH]3)CCN(C3CCN(C)CC3)C4)n[nH]c2c1` [crystalline hydrate, 5-ethyl-2-fluoro-4-(3-(5-(1-methylpiperidin-4-yl)-4,5,6,7-tetrahydro-1H-imidazo[4,5-c]pyridin-2-yl)-1H-indazol-6-yl)phenol], the “hygroscopicity” value in data set [3] was “non-hygroscopic”. Also, in data set [3] (5% to 90% relative humidity, 25° C.), the “weight gain (dynamic moisture sorption)” value is “less than 0.12%”.
